The results in this text go back to ChEMBL document CHEMBL1131296 (J Med Chem, 1998).

Assay [1] deals with T1, Adrenergic receptor alpha-2 (Rattus norvegicus, UniProt P22086+P19328+P22909).
T1 sequence (P22086 whole entry): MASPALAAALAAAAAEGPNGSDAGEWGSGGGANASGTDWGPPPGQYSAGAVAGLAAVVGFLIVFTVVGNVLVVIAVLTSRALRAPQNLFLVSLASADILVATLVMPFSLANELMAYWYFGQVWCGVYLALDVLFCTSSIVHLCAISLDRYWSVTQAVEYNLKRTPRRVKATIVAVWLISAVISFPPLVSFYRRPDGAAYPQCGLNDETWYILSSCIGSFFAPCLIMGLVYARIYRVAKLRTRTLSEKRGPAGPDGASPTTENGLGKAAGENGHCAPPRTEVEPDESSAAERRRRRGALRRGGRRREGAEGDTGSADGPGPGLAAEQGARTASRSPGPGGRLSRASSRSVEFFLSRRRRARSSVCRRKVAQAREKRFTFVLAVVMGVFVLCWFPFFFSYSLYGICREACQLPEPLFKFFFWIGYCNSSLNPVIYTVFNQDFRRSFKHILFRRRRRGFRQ
T1 sequence (P19328 whole entry): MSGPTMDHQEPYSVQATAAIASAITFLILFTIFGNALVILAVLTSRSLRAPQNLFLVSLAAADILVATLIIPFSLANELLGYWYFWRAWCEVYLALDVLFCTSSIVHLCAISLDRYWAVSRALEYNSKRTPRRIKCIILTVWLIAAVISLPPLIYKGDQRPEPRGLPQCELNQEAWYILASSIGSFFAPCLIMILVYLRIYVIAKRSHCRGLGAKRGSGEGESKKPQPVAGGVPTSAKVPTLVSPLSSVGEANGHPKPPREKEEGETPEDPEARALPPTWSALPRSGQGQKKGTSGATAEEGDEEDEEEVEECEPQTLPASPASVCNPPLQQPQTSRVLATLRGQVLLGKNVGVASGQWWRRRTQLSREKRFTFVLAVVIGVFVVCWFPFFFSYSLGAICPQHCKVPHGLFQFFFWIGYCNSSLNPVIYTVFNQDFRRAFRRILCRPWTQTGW
T1 sequence (P22909 whole entry): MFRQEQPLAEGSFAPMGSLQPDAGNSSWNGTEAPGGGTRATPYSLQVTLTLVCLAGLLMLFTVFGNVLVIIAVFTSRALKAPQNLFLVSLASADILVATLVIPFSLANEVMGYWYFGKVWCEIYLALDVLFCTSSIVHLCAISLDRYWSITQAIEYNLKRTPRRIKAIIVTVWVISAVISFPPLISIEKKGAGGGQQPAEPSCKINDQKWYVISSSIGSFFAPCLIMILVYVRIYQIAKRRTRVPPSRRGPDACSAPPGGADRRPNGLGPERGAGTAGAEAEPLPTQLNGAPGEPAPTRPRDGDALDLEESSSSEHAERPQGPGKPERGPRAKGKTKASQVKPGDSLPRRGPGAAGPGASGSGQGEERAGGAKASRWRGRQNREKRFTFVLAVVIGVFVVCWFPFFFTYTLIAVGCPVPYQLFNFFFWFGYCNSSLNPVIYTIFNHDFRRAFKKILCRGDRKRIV
The assay is described as follows: Binding affinity at native Alpha-2 adrenergic receptor in rat cerebral cortex by [3H]rauwolscine displacement. The format is tissue-based.

Assay [2] concerns the target T2, Alpha-1D adrenergic receptor (Homo sapiens, UniProt P25100).
T2 sequence (P25100 whole entry): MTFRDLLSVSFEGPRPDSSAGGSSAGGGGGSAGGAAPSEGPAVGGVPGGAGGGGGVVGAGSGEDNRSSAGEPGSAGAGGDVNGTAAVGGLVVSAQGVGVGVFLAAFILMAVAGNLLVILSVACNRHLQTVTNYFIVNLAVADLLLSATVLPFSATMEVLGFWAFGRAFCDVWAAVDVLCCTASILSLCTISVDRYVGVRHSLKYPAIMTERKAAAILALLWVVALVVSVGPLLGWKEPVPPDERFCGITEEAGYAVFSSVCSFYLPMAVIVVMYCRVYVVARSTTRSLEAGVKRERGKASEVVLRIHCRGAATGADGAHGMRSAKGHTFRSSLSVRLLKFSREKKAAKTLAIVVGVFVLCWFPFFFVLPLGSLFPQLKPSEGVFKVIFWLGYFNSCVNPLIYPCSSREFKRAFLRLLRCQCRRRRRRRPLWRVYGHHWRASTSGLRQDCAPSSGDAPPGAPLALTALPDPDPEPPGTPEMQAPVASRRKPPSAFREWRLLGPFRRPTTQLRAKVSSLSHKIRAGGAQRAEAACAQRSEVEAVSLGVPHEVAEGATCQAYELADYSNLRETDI
Put plainly: Binding affinity at human cloned Alpha-1D adrenergic receptor in chinese hamster ovary cells by [3H]prazosin displacement. The format is cell-based, CHO.

The target in assay [3] is T3, Alpha-1B adrenergic receptor (Homo sapiens, UniProt P35368).
T3 sequence (P35368 whole entry): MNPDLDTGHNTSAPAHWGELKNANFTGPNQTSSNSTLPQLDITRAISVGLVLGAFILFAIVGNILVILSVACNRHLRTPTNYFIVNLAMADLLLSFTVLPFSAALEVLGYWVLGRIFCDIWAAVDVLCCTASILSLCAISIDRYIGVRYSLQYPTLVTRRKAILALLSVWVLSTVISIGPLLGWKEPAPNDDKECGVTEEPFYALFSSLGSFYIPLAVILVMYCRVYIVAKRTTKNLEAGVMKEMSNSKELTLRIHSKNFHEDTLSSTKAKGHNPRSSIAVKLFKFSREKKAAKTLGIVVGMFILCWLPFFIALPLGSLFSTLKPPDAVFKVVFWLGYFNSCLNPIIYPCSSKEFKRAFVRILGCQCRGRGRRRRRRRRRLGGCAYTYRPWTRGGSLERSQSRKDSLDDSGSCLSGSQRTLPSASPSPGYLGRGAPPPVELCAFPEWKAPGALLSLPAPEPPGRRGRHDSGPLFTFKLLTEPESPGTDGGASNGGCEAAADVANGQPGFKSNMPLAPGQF
The assay is described as follows: Binding affinity at human cloned Alpha-1B adrenergic receptor in chinese hamster ovary cells by [3H]prazosin displacement. Type of assay: cell-based, CHO.

In assay [4] the target is T4, Alpha-1B adrenergic receptor (Rattus norvegicus, UniProt P15823).
T4 sequence (P15823 whole entry): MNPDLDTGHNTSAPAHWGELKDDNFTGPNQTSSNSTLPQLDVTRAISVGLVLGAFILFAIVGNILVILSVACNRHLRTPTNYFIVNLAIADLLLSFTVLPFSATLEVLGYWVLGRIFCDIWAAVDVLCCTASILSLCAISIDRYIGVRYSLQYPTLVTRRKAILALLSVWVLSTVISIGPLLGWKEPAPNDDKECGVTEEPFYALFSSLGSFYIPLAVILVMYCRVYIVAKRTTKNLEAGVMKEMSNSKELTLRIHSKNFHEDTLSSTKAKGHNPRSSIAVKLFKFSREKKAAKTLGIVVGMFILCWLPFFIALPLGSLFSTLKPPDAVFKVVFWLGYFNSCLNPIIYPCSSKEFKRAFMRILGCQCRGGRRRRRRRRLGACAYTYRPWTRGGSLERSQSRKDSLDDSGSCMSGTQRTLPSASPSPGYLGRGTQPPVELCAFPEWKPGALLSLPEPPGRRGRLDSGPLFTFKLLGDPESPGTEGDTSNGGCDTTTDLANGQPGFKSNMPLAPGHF
Put plainly: Antagonism of phenylephrine stimulated contraction of the rat isolated spleen. Type of assay: functional, tissue-based. Particulars: read-out: pA2 (converted).

In general, Ki refers to a measure of affinity in units of concentration, obtained from inhibition or displacement. Low values mean tighter binding, high ones weaker binding. For `COc1cc2nc(N(C)CCCCCCN(C)C(=O)c3cccc(CN(C)C)c3)nc(N)c2cc1OC`, the “Log Ki” value in assay [1] is reported as -7.72. The Ki in assay [2] is 0.245 nM; in assay [3] it was 0.166 nM. Moreover, the Kb in assay [4] is 37.2 nM.
